Consider seven compounds from PubChem BioAssay AID250 (DTP/NCI, 2004).

The structures appear in SMILES notation. Where “and” joins values, the source holds several entries; their conditions need not be identical. Identical values can stand only once. Inconclusive results and toxic doses are left out.

The test deals with BDF1 mice, L1210 leukemia sc, survival T/C. Briefly: NCI In Vivo Anticancer Drug Screen. Data for tumor model L1210 Leukemia (subcutaneous) in B6D2F1 (BDF1) mice. Particulars: endpoint: median survival time, higher = longer survival. An outline of the steps:
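Mice carrying transplanted tumors received test compounds, and survival or tumor size was measured. Values are the treated-group measurement (T) divided by that of the vehicle-treated control group (C).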

[1] abbreviates: dose: 23.0 mg/kg/injection, schedule: Q01DX Z (sc), vehicle: water.
The mark [2] stands for this setting: dose: 39.0 mg/kg/injection, schedule: Q01DX Z (sc), vehicle: water.
The mark [3] stands for this setting: dose: 65.0 mg/kg/injection, schedule: Q01DX Z (sc), vehicle: saline.
Setting [4] is: dose: 300.0 mg/kg/injection, schedule: Q01DX Z (sc), vehicle: saline.
Setting [5] is: dose: 500.0 mg/kg/injection, schedule: Q01DX Z (sc), vehicle: saline.
Where [6] appears, read: dose: 833.0 mg/kg/injection, schedule: Q01DX Z (sc), vehicle: saline.
[7] abbreviates: dose: 1388.0 mg/kg/injection, schedule: Q01DX Z (sc), vehicle: saline.

In the case of `CNNCc1ccc(C(=O)NC(C)C)cc1`, the T/C by setting is: (dose: 65.0 mg/kg/injection, schedule: Q01DX009 (sc), vehicle: saline) 116 % of control and 122 % of control; (dose: 65.0 mg/kg/injection, schedule: Q01DX014 (sc), vehicle: saline) 119 % of control and 122 % of control; (dose: 65.0 mg/kg/injection, schedule: Q01DX015 (sc), vehicle: saline) 122 % of control; (dose: 108.0 mg/kg/injection, schedule: Q01DX014 (sc), vehicle: saline) 111 % of control; (dose: 108.0 mg/kg/injection, schedule: Q01DX015 (sc), vehicle: saline) 122 % of control and 123 % of control; (dose: 180.0 mg/kg/injection, schedule: Q01DX015 (sc), vehicle: saline) 150 % of control. The T/C is, setting by setting: (dose: 300.0 mg/kg/injection, schedule: Q01DX015 (sc), vehicle: saline) 163 % of control and 166 % of control; (dose: 500.0 mg/kg/injection, schedule: Q01DX014 (sc), vehicle: saline) 122 % of control; (dose: 500.0 mg/kg/injection, schedule: Q01DX015 (sc), vehicle: saline) 116 % of control and 117 % of control.

As for `C=CCNC(=O)NCC=C`, the T/C was 105 % of control (dose: 100.0 mg/kg/injection, schedule: Q01DX001 (ip), vehicle: saline); 111 % of control (dose: 100.0 mg/kg/injection, schedule: Q01DX001 (sc), vehicle: saline); 111 % of control (dose: 100.0 mg/kg/injection, schedule: Q04DX003 (ip), vehicle: saline); 111 % of control (dose: 100.0 mg/kg/injection, schedule: Q04DX003 (sc), vehicle: saline); 111 % of control (dose: 200.0 mg/kg/injection, schedule: Q01DX001 (ip), vehicle: saline); 111 % of control (dose: 200.0 mg/kg/injection, schedule: Q01DX001 (sc), vehicle: saline). In addition, the T/C (dose: 200.0 mg/kg/injection, schedule: Q01DX009 (ip), vehicle: saline) is 150 % of control and the T/C (dose: 200.0 mg/kg/injection, schedule: Q04DX003 (ip), vehicle: saline) was 122 % of control.

Take `O=C(Nc1ccc(C2=NCCN2)cc1)c1ccc(C(=O)Nc2ccc(C3=NCCN3)cc2)c([N+](=O)[O-])c1`: the T/C (dose: 3.0 mg/kg/injection, schedule: Q01DX Z (sc), vehicle: saline) was 100 % of control; the T/C (dose: 5.0 mg/kg/injection, schedule: Q01DX Z (sc), vehicle: saline) was 109 % of control; the T/C (dose: 8.4 mg/kg/injection, schedule: Q01DX Z (sc), vehicle: saline) is 104 % of control and 109 % of control; the T/C (dose: 14.0 mg/kg/injection, schedule: Q01DX Z (sc), vehicle: saline) was 104 % of control; the T/C (dose: 23.0 mg/kg/injection, schedule: Q01DX Z (ip), vehicle: water) is 100 % of control; the T/C (dose: 23.0 mg/kg/injection, schedule: Q01DX Z (sc), vehicle: saline) was 118 % of control. In addition, the T/C is 100 % of control under setting [1]; 160 % of control (dose: 39.0 mg/kg/injection, schedule: Q01DX Z (ip), vehicle: water); 115 % of control under setting [2]; 180 % of control (dose: 65.0 mg/kg/injection, schedule: Q01DX Z (ip), vehicle: water); 114 % of control and 209 % of control under setting [3].

Regarding `CN(C)c1nc(N(C)C)nc(N(C)C)n1`, the T/C (dose: 39.0 mg/kg/injection, schedule: Q01DX Z (sc), vehicle: saline) is 100 % of control; the T/C under setting [3] is 100 % of control; the T/C (dose: 108.0 mg/kg/injection, schedule: Q01DX Z (sc), vehicle: saline) was 100 % of control; the T/C (dose: 180.0 mg/kg/injection, schedule: Q01DX Z (sc), vehicle: saline) is 100 % of control; the T/C under setting [4] was 95 % of control and 105 % of control; the T/C under setting [5] was 95 % of control. Further, the T/C reads like this: under setting [6], 110 % of control; under setting [7], 100 % of control.

On to `Nc1cc(=O)[nH][nH]1`, for which the T/C was 100 % of control under setting [4], 105 % of control under setting [5], 90 % of control under setting [6] and 90 % of control under setting [7].

For `Oc1cc(CN(CCCl)CCCl)c(O)cc1CN(CCCl)CCCl`, the T/C (dose: 3.0 mg/kg/injection, schedule: Q01DX Z (sc), vehicle: methylcellulose (MC)) was 100 % of control; the T/C (dose: 5.0 mg/kg/injection, schedule: Q01DX Z (sc), vehicle: methylcellulose (MC)) is 105 % of control; the T/C (dose: 8.4 mg/kg/injection, schedule: Q01DX Z (sc), vehicle: methylcellulose (MC)) is 110 % of control; the T/C (dose: 14.0 mg/kg/injection, schedule: Q01DX Z (sc), vehicle: methylcellulose (MC)) is 100 % of control; the T/C (dose: 23.0 mg/kg/injection, schedule: Q01DX Z (sc), vehicle: methylcellulose (MC)) is 105 % of control; the T/C (dose: 39.0 mg/kg/injection, schedule: Q01DX Z (sc), vehicle: methylcellulose (MC)) was 110 % of control. In addition, the T/C reads like this: (dose: 65.0 mg/kg/injection, schedule: Q01DX Z (sc), vehicle: methylcellulose (MC)) 110 % of control; (dose: 108.0 mg/kg/injection, schedule: Q01DX Z (sc), vehicle: methylcellulose (MC)) 120 % of control; (dose: 180.0 mg/kg/injection, schedule: Q01DX Z (sc), vehicle: methylcellulose (MC)) 120 % of control.

For `O=C(Nc1ccc(C2=NCCN2)cc1)c1cccc(C(=O)Nc2ccc(C3=NCCN3)cc2)c1`, the T/C is 110 % of control (dose: 8.4 mg/kg/injection, schedule: Q01DX Z (sc), vehicle: water); 230 % of control (dose: 14.0 mg/kg/injection, schedule: Q01DX Z (sc), vehicle: water); 235 % of control under setting [1]; 270 % of control under setting [2]; 265 % of control (dose: 65.0 mg/kg/injection, schedule: Q01DX Z (sc), vehicle: water); 270 % of control (dose: 108.0 mg/kg/injection, schedule: Q01DX Z (sc), vehicle: water).
